We go through eight compounds from paper PMC11750451, “Diarylamidine activation of a brachiopod DEG/ENaC/ASIC channel” (The Journal of Biological Chemistry, 2024).

The term EC50 denotes the concentration needed to bring the measured effect to its halfway point.

“Also recorded” adds a separate entry of the source. Read-outs that look alike come from different tables or passages of the source.

The target in test [1] is DiaaNaC (diarylamidine-activated Na+ channel) (Novocrania anomala, UniProt A0AAU8BSW0). Briefly: Two-electrode voltage clamp of Xenopus laevis oocytes expressing WT DiaaNaC. In kind it is cell-based. The conditions noted are these: for reversal potential (Erev) of pentamidine-gated current: n = 5; for activation of DiaaNaC (agonist activity): compound at 1 mM; for inward currents in absence of extracellular Na+: 1 mM compound, 140 KCl instead of NaCl. The procedure: (§1) Before electrophysiological recordings or surface expression determination, the oocytes were cultured for 3 days at 18 °C in 50% Leibowitz medium (L1518, Merck), supplemented with 0.25 mg/ml gentamicin, 1 mM L-glutamine, and 15 mM Hepes (pH 7.6). For surface expression detection, mouse anti-Myc tag monoclonal IgG1 antibody (MA121316, Fisher Scientific) was used to detect the myc tag attached to the 3′-end of all the constructs used in this work, and the protocol previously used in our lab was followed ([47]) using a Zeiss Axio Scope A1 microscope. The intensity of the expression signal was quantified by tracing a perpendicular line across the oocyte membrane and measuring the gray values with ImageJ software ([48]).
DiaaNaC (diarylamidine-activated Na+ channel), sequence (A0AAU8BSW0 entry or part of it): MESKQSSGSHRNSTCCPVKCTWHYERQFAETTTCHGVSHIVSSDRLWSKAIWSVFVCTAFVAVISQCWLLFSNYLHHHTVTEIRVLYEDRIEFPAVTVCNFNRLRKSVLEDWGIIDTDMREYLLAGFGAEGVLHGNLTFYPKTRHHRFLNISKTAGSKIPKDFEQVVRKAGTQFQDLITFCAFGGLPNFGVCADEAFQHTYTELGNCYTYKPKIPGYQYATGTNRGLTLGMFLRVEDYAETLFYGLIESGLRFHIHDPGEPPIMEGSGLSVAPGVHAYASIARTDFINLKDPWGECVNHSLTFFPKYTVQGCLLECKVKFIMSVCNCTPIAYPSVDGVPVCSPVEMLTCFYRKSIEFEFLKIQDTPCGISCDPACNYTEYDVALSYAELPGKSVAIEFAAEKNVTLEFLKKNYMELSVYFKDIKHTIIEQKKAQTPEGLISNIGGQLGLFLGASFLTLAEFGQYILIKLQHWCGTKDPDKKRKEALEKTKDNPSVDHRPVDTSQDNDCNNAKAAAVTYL
Whole cell currents were recorded from oocytes by two-electrode voltage clamp using an OC-725D amplifier (Warner Instruments) controlled via an Axon Digitata 1550B interface and pClamp v11 (Molecular Devices), acquired at 1 kHz, and filtered at 200 Hz. Currents were analyzed in pClamp v10.7 software (Molecular Devices) and additionally filtered at 10 Hz for display in figures. Oocytes were clamped at −60 mV, unless otherwise indicated, and continuously perfused with a bath solution containing (in mM): 140 NaCl, 1.8 BaCl2, and 10 Hepes. The pH was adjusted to 7.5 with NaOH, HCl, or KOH, as appropriate. For current–voltage relationships where K^+ replaced Na^+, KCl replaced NaCl in the above bath solution. In most experiments, activating solution was applied to oocytes in between resting periods of at least 30 to 60 s. After retrieving current amplitude from pClamp, all data were analyzed in Prism v9 (GraphPad Software). Currents were normalized by dividing by the maximum current at that oocyte, giving “I/Imax” in most concentration–response graphs. For graphs in figures and for calculating half-maximal effective (or inhibitory) concentration (EC50 or IC50) values, variable slope nonlinear regression was used in Prism v9, with the equation Y = Bottom + (Top-Bottom)/ […] 10^∧((LogEC50-X)∗HillSlope)), and maximum was constrained to one and minimum to zero. Curves in figures are fit to the mean data points. EC50 and IC50 values reported in text and used in statistical comparisons are means from curve fits to data on individual oocytes.

For test [2], the system named is DiaaNaC L70S. Briefly: Two-electrode voltage clamp, DiaaNaC L70S mutant in oocytes. In kind it is cell-based, Novocrania anomala. The conditions noted are these: 0 mV. The text has this: The DiaaNaC full-length coding sequence was amplified by PCR from N. anomala cDNA and subcloned via SalI and BamHI sites into a pSP64 (polyA) vector (P1241, Promega) modified to contain the X. laevis globin 5′ and 3′ UTRs and a C-terminal Myc-tag linked to the final DiaaNaC residue via Gly-Ser linker (the BamHI site) (see ([20]) for full vector sequence). The cDNA sequence was deposited in NCBI GenBank accession number PP942623. Recombinant PCR with Phusion High-Fidelity DNA polymerase (F-549L, Thermo Fisher Scientific) was used to perform site-directed mutagenesis, as described previously ([45]). […]
Before electrophysiological recordings or surface expression determination, the oocytes were cultured for 3 days at 18 °C in 50% Leibowitz medium (L1518, Merck), supplemented with 0.25 mg/ml gentamicin, 1 mM L-glutamine, and 15 mM Hepes (pH 7.6). […] The intensity of the expression signal was quantified by tracing a perpendicular line across the oocyte membrane and measuring the gray values with ImageJ software ([48]).
Whole cell currents were recorded from oocytes by two-electrode voltage clamp using an OC-725D amplifier (Warner Instruments) controlled via an Axon Digitata 1550B interface and pClamp v11 (Molecular Devices), acquired at 1 kHz, and filtered at 200 Hz. Currents were analyzed in pClamp v10.7 software (Molecular Devices) and additionally filtered at 10 Hz for display in figures. […]
(Two-electrode voltage clamp is typically applied to oocytes expressing channels or transporters.)

For test [3], the system named is DiaaNaC E82A. Description: Two-electrode voltage clamp, DiaaNaC E82A mutant in oocytes. In kind it is cell-based, Novocrania anomala.
Text: (§2) The DiaaNaC full-length coding sequence was amplified by PCR from N. anomala cDNA and subcloned via SalI and BamHI sites into a pSP64 (polyA) vector (P1241, Promega) modified to contain the X. laevis globin 5′ and 3′ UTRs and a C-terminal Myc-tag linked to the final DiaaNaC residue via Gly-Ser linker (the BamHI site) (see ([20]) for full vector sequence). The cDNA sequence was deposited in NCBI GenBank accession number PP942623. Recombinant PCR with Phusion High-Fidelity DNA polymerase (F-549L, Thermo Fisher Scientific) was used to perform site-directed mutagenesis, as described previously ([45]). […] EcoRI (FD0274, Thermo Fisher Scientific) was used to linearize the cDNAs via a site shortly after the poly(A) sequence, and the mMESSAGE mMACHINE SP6 Transcription Kit (AM1340, Thermo Fisher Scientific) was used to synthesize cRNA.
as §1
(§3) Whole cell currents were recorded from oocytes by two-electrode voltage clamp using an OC-725D amplifier (Warner Instruments) controlled via an Axon Digitata 1550B interface and pClamp v11 (Molecular Devices), acquired at 1 kHz, and filtered at 200 Hz. Currents were analyzed in pClamp v10.7 software (Molecular Devices) and additionally filtered at 10 Hz for display in figures. […] After retrieving current amplitude from pClamp, all data were analyzed in Prism v9 (GraphPad Software). […]

In test [4] the test system is DiaaNaC G6′S. Briefly: Two-electrode voltage clamp, DiaaNaC G6′S mutant in oocytes. In kind it is cell-based, Novocrania anomala.
Text: as §2, §1, §3

Test [5] concerns DiaaNaC E358A. Description: Two-electrode voltage clamp, DiaaNaC E358A mutant in oocytes. In kind it is cell-based, Novocrania anomala.
Text: as §2, §1, §3

`N=C(N)c1ccc(OCCCCCOc2ccc(C(=N)N)cc2)cc1` [pentamidine]: the “reversal potential (Erev) of pentamidine-gated current” value in test [1] (150 μM pentamidine, extracellular NaCl) is recorded as 53.5 ± 5.0 mV; in test [1] (450 μM pentamidine, extracellular NaCl), 57.6 ± 3.4 mV; in test [1] (K+ the only monovalent cation in extracellular solution, pentamidine 450 μM, estimated) it was −12.2 ± 4.6 mV. In addition, the “pentamidine EC50 in the presence of amiloride” value in test [1] (600 μM amiloride) was “not significantly altered”. The 50% effective concentration (EC50) in test [1] (EC50 for activation of DiaaNaC, −60 mV, absence of Ca2+, WT) turned out to be 592 ± 30.7 µM; in test [1] (pentamidine EC50, +10 mV, n = 4), 959 ± 80.7 µM; in test [1] (pentamidine EC50, +80 mV, n = 4), 1030 ± 101 µM; in test [1] (pentamidine EC50, −100 mV), 471 ± 38.4 µM; in test [1] (pentamidine EC50 with Ca2+, 1.8 mM Ca2+, n = 6), 1000 ± 100 µM. In test [1] (−100 mV, 1 mM pentamidine), the “block of the agonist-gated current” value is reported as “no such block”.

As to `NC(N)=NCCCCN=C(N)N` [arcaine], in test [1] (−60 mV), the “activation of DiaaNaC (agonist activity)” value is given as “neither activated; also recorded: none of these compounds activated”.

`C[C@H](CCC(=O)O)[C@H]1CC[C@H]2[C@@H]3[C@@H](O)C[C@@H]4C[C@H](O)CC[C@]4(C)[C@H]3CC[C@]12C` [Ursodeoxycholic acid, ursodeoxycholic acid] registered a current activated in test [1] (UDCA 2 mM, −60 mV, n = 7) of 73.1 ± 10 nA.

For the compound `Cc1nc(N=C(N)N)nc2ccccc12` [GMQ, 2-(4-methylquinazolin-2-yl)guanidine], the “activation of DiaaNaC (agonist activity)” value in test [1] (−60 mV) is recorded as “none of these compounds activated”.

Turning to `NCCCNCCCCNCCCN` [spermine], the “activation of DiaaNaC (agonist activity)” value in test [1] (−60 mV) was “neither activated; also recorded: none of these compounds activated”.

With `N=C(N)c1ccc(/N=N/Nc2ccc(C(=N)N)cc2)cc1` [diminazene], the diminazene-gated currents entry in test [2] is reported as “abolished”. Moreover, the “diminazene potency compared to WT” value in test [3] (0 mV), in test [4] (0 mV) and in test [5] (0 mV) was “significantly reduced” in each case. Besides, the “diminazene agonist potency compared to WT” value in test [3] (−60 mV), in test [4] (−60 mV) and in test [5] (−60 mV) was “decrease in agonist potency” each time. The “channel block by diminazene” value is “noticeable block develops” in test [3] (−60 mV, 1 and 3 mM diminazene); “block was not evident” in test [4] (−60 mV, even at 3 mM diminazene). For the same compound, the “inward currents in absence of extracellular Na+” value in test [1] (−60 mV) is on record as “tiny, if any”. Moreover, the “concentration that activates DiaaNaC” value in test [1] (WT) was at least 300 µM. In addition, the “concentration that blocks DiaaNaC” value in test [1] (WT) is at least 1 mM. For the same compound, the “effect on constitutive current” value in test [1] (diminazene 1 mM, absence of Ca2+) is recorded as “without inhibiting the constitutive current”. The compound also returned an inward currents activated in test [1] (diminazene 1 mM, absence of Ca2+, −60 mV, n = 7) of 1.0 ± 0.2 μA. Moreover, the EC50 in test [1] (holding potential 0 mV, WT, read-out: diminazene EC50 for activation) was determined as 409 ± 71 µM; in test [1] (−60 mV, absence of Ca2+, WT, read-out: EC50 for activation of DiaaNaC), 287 µM. Further, in test [1] (−100 mV, 1 mM diminazene, read-out: block of the agonist-gated current), the inhibition at 1000 µM was around 100%. The “diminazene concentration at which block occurs” value in test [5] (−60 mV) was determined as 3 mM.

On to `NCCCCNCCCN` [spermidine], for which the “activation of DiaaNaC (agonist activity)” value in test [1] (−60 mV) was “neither activated”.

`N=C(N)c1ccc(-c2cc3ccc(C(=N)N)cc3[nH]2)cc1` [DAPI, 4′,6-diamidino-2-phenylindole]: the “inward currents in absence of extracellular Na+” value in test [1] (−60 mV) is on record as “tiny, if any”.
